Measured values published in PubChem BioAssay (NCI).
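1) Cells in 96-well plates. 2) Compound, 48 h, 5 concentrations. 3) Linear interpolation between surrounding doses. 4) Unreached endpoint = highest concentration. GI50 is the concentration that inhibits growth by half. TGI denotes the concentration required for complete inhibition of growth.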

Tests used:
Assay in all cases: inhibition of tumour cell growth, NCI panel, 48 h; in the data active = GI50 below about 0.43 µM; inactive = the rest
[1] = test system: SN12C renal
[2] = test system: RPMI-8226 leukemia
[3] = test system: HS 578T breast
[4] = test system: SNB-19 CNS
[5] = test system: HOP-62 NSCLC
[6] = test system: MALME-3M melanoma
[7] = test system: M14 melanoma
[8] = test system: SF-539 CNS
[9] = test system: 786-0 renal
[10] = test system: OVCAR-4 ovarian
[11] = test system: T-47D breast
[12] = test system: HCT-116 colon
[13] = test system: TK-10 renal
[14] = test system: NCI-H226 lung
[15] = test system: PC-3 prostate
[16] = test system: OVCAR-8 ovarian
[17] = test system: NCI-H460 lung
[18] = test system: CAKI-1 renal
[19] = test system: K-562 leukemia
[20] = test system: U251 CNS
[21] = test system: HOP-92 NSCLC
[22] = test system: NCI-H23 lung
[23] = test system: UACC-257 melanoma
[24] = test system: MCF7 breast
[25] = test system: SF-295 CNS
[26] = test system: SW-620 colon
[27] = test system: OVCAR-5 ovarian
[28] = test system: CCRF-CEM leukemia
[29] = test system: UACC-62 melanoma
[30] = test system: SF-268 CNS
[31] = test system: A498 renal
[32] = test system: DU-145 prostate
[33] = test system: UO-31 renal
[34] = test system: LOX IMVI melanoma
[35] = test system: MOLT-4 leukemia
[36] = test system: IGROV1 ovarian
[37] = test system: SK-OV-3 ovarian
[38] = test system: SNB-75 CNS
[39] = test system: NCI-H522 lung
[40] = test system: NCI/ADR-RES ovarian
[41] = test system: A549 NSCLC
[42] = test system: KM12 colon
[43] = test system: BT-549 breast
[44] = test system: OVCAR-3 ovarian
[45] = test system: MDA-MB-231 breast
[46] = test system: HT29 colon
[47] = test system: SK-MEL-28 melanoma
[48] = test system: COLO 205 colon
[49] = test system: HCC-2998 colon
[50] = test system: HL-60(TB) leukemia
[51] = test system: HCT-15 colon
[52] = test system: RXF 393 renal
[53] = test system: MDA-MB-435
[54] = test system: SK-MEL-2 melanoma
[55] = test system: SK-MEL-5 melanoma
[56] = test system: SR leukemia
[57] = test system: ACHN renal

CCOC(=O)Nc1nc2c(C)cccc2s1
54.8 µM: TGI [31]
> 100 µM: TGI [1] | TGI [2] | TGI [3] | TGI [4] | TGI [5] | TGI [6] | TGI [7] | TGI [8] | TGI [9] | TGI [10] | TGI [11] | TGI [12] | TGI [13] | TGI [14] | TGI [15] | TGI [16] | TGI [17] | TGI [18] | TGI [19] | TGI [20] | TGI [22] | TGI [23] | TGI [24] | TGI [25] | TGI [26] | TGI [27] | TGI [28] | TGI [29] | TGI [30] | TGI [32] | TGI [33] | TGI [34] | TGI [35] | TGI [36] | TGI [37] | TGI [38] | TGI [39] | TGI [40] | TGI [41] | TGI [42] | TGI [43] | TGI [44] | TGI [45] | TGI [46] | TGI [47] | TGI [48] | TGI [49] | TGI [50] | TGI [51] | TGI [52] | TGI [53] | TGI [54] | TGI [56] | TGI [57]
91.5 µM: TGI [55]
inactive: GI50 [1] 44.7 µM | GI50 [2] 31.4 µM | GI50 [3] 36.1 µM | GI50 [4] > 100 µM | GI50 [5] > 100 µM | GI50 [6] 56.3 µM | GI50 [7] 53 µM | GI50 [8] 77.7 µM | GI50 [9] > 100 µM | GI50 [10] 43.2 µM | GI50 [11] 47.4 µM | GI50 [12] 45.3 µM | GI50 [13] 90.9 µM | GI50 [14] > 100 µM | GI50 [15] 48.9 µM | GI50 [16] 52.8 µM | GI50 [17] 70.8 µM | GI50 [18] 45.7 µM | GI50 [19] 34.7 µM | GI50 [20] 77.5 µM | GI50 [21] 13.9 µM | GI50 [22] 38.8 µM | GI50 [23] 39.8 µM | GI50 [24] 29.2 µM | GI50 [25] 27.2 µM | GI50 [26] 64.7 µM | GI50 [27] 66.8 µM | GI50 [28] 54.8 µM | GI50 [29] 36 µM | GI50 [30] 55.3 µM | GI50 [31] 11.7 µM | GI50 [32] 51.1 µM | GI50 [33] 33.5 µM | GI50 [34] 49.7 µM | GI50 [35] 38.1 µM | GI50 [36] 46 µM | GI50 [37] > 100 µM | GI50 [38] 30.9 µM | GI50 [39] 47.8 µM | GI50 [40] 38.9 µM | GI50 [41] 43.9 µM | GI50 [42] 56.8 µM | GI50 [43] 35.8 µM | GI50 [44] 41.8 µM | GI50 [45] 36.1 µM | GI50 [46] 46.8 µM | GI50 [47] > 100 µM | GI50 [48] > 100 µM | GI50 [49] 64.7 µM | GI50 [50] 29.9 µM | GI50 [51] 44.3 µM | GI50 [52] > 100 µM | GI50 [53] 48.9 µM | GI50 [54] 85.8 µM | GI50 [55] 28 µM | GI50 [56] 73.3 µM | GI50 [57] 74.6 µM
71.5 µM: TGI [21]
